The text below walks through data of PubChem BioAssay (NCI).

Some test systems named below: TK-10 renal; K-562 leukemia; SNB-19 CNS.
Common to all, as to experiment: NCI-60 cell line screen, 48 h

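Five compound concentrations were applied to cells in 96-well plates for 48 hours; endpoints were derived by simple linear interpolation of the resulting dose-response curve. TGI: concentration producing complete growth inhibition.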 Where only a bound is given, the exact number is not on record here.

For `C=C1[C@H](OCC(C)C)[C@@H](OCC(C)C)[C@@H](O)C(C)(C)/C=C/[C@H](C)C(=O)[C@@]2(O)C[C@H](C)[C@H](O)[C@@H]2[C@H]1OCC(C)C`, the TGI with TK-10 renal, with K-562 leukemia and with SNB-19 CNS was over 7.5 µM throughout.
As for `CNC(=O)C(C)NC(=O)C(Cc1ccccc1)NC(=O)OC(C)(C)C` (centres undefined), the TGI in the assay with TK-10 renal, in the assay on K-562 leukemia and with SNB-19 CNS was over 100 µM each time.
As for `CC1=C(C#N)C(=O)N(/N=C/c2ccc(Cl)cc2)C(=O)/C1=c1\o/c(=C2/C(=O)N(/N=C/c3ccc(Cl)cc3)C(=O)C(C#N)=C2C)c2nccnc12`, the TGI with K-562 leukemia and in the assay on SNB-19 CNS was over 100 µM in each case.
Consider `COC(=O)CC1CN(C(=O)OCc2ccccc2)C(C)(C)O1` (centres undefined), for which the TGI with TK-10 renal, with K-562 leukemia and in the assay on SNB-19 CNS was over 100 µM throughout.
Consider `O=C(n1[nH]c(=O)n(-c2ccc([N+](=O)[O-])cc2)c1=O)C(Cl)(Cl)Cl`, for which the TGI in the assay with TK-10 renal, with K-562 leukemia and in the assay on SNB-19 CNS was over 75 µM throughout.
For `O=c1oc2ccccc2c(O)c1C(c1ccc2ccccc2c1)c1c(O)c2ccccc2oc1=O`, the TGI in the assay on TK-10 renal, in the assay with K-562 leukemia and in the assay with SNB-19 CNS was over 100 µM throughout.
As to `COC(=O)c1cccc(C)c1C1CN=NC12Cc1c(ccc(C)c1C)C2=O` (centres undefined), the TGI with TK-10 renal, in the assay on K-562 leukemia and in the assay with SNB-19 CNS was over 100 µM each time.
Take `CC1N(O)C(c2ccccc2)C(c2ccccc2)=[N+]1[O-]` (centres undefined): the TGI with TK-10 renal, in the assay with K-562 leukemia and in the assay on SNB-19 CNS was over 100 µM each time.
On to `CC(C)[Si](OCC/C=C/C1CCC(=O)C1C(O)C1CCCCC1)(C(C)C)C(C)C` (centres undefined), for which the TGI is 32.7 µM in the assay with TK-10 renal, 47 µM in the assay on K-562 leukemia and 32.6 µM in the assay on SNB-19 CNS.
For `Cc1ccc2nc(CN3CCCCC3)cc(=O)n2c1` the same measures were over 100 µM, over 100 µM and over 100 µM.
For `CC(C)CC(=O)OC[n+]1cccc(-c2c(COC(=O)NC(C)C)c(COC(=O)NC(C)C)c3n2CCC3)c1` the same measures were over 100 µM, over 100 µM and over 100 µM.
For `O=C(/C=C/c1c(O)c2ccccc2[nH]c1=O)CC(=O)C(=O)Nc1cccc(O)c1` the same measures were over 100 µM, over 100 µM and over 100 µM.
With `Cn1c(=S)[nH]c2c(Cl)cc(Cl)cc2c1=O`, the TGI in the assay with TK-10 renal and in the assay with SNB-19 CNS was over 100 µM throughout.
As to `C=CCN1C(=O)N/C(=C\c2ccc(Cl)cc2)C1=O`, the TGI with TK-10 renal, in the assay with K-562 leukemia and with SNB-19 CNS was over 100 µM each time.
For `CCC1=NC(N/N=C/c2ccccc2O)=N/C1=C\c1ccccc1O`, the TGI is over 54.6 µM with TK-10 renal, over 100 µM in the assay with K-562 leukemia and over 100 µM in the assay with SNB-19 CNS.
With `C#CCOC(=O)C(N)CS` (centres undefined), the TGI in the assay on TK-10 renal and with K-562 leukemia was over 100 µM each time.
With `c1ccc2c(c1)n1c(N3CCOCC3)[n+]3ccccc3c1c1c3cccc[n+]3c(N3CCOCC3)n21`, the TGI in the assay on TK-10 renal, in the assay with K-562 leukemia and in the assay on SNB-19 CNS was over 100 µM each time.
`COc1c(C(=O)O)cccc1-c1cccc(C(=O)NCCN(CCNC(=O)c2cccc(-c3cccc(C(=O)O)c3OC)c2OC)CCNC(=O)c2cccc(-c3cccc(C(=O)O)c3OC)c2OC)c1OC`: the TGI with TK-10 renal, in the assay on K-562 leukemia and in the assay on SNB-19 CNS was over 100 µM in each case.
Consider `CC(=O)NNc1nc(C)c(C(/C=C/c2ccccc2O)=N/NC(=O)c2ccncc2)s1`, for which the TGI with TK-10 renal and with SNB-19 CNS was over 100 µM each time.
Take `Cc1cc(C)n(C(=O)C(C)Sc2nnc(SC(C)C(=O)n3nc(C)cc3C)s2)n1` (centres undefined): the TGI in the assay on TK-10 renal, in the assay on K-562 leukemia and in the assay on SNB-19 CNS was over 100 µM in each case.
With `CC(C(O)c1ccccc1)N(C)/N=N/c1nc2c([nH]1)c(=O)n(C)c(=O)n2C` (centres undefined), the TGI in the assay with TK-10 renal, in the assay with K-562 leukemia and with SNB-19 CNS was over 100 µM each time.
As for `CCOP(=O)(CCC(O)CNc1nc(N)nc(Cl)c1N=Nc1ccc(Cl)cc1)OCC` (centres undefined), the results for the TGI with TK-10 renal and with K-562 leukemia were 54.1 µM and over 100 µM, respectively.
Consider `COc1cc(/C=C2\CCC(C)c3c2nc(N)c(C#N)c3-c2cc(OC)c(OC)c(OC)c2)cc(OC)c1OC` (centres undefined), for which the TGI with TK-10 renal, with K-562 leukemia and in the assay with SNB-19 CNS was over 100 µM throughout.
On to `COc1c(C(CC(C)C)OC(C)=O)ccc2c1C(=O)OCc1cc(C)cc(O)c1O2` (centres undefined), for which the values for the TGI in the assay on TK-10 renal, with K-562 leukemia and in the assay on SNB-19 CNS were 31.8 µM, over 100 µM and 28.7 µM, respectively.
The like results for `O=S(=O)([N-]c1nc2ccccc2nc1-[n+]1ccccc1)c1ccccc1` were, in that order, over 100 µM, over 100 µM and over 100 µM.
For `O=c1[nH]c2nccn2c(Cl)c1Br` the same measures were over 100 µM, 39.1 µM and 70.5 µM.
For `Cc1nc2c(n1CCCl)C(=O)c1ccccc1C2=O` the same measures were 78.5 µM, over 100 µM and over 100 µM.
`Clc1cccc(Cl)c1C1SCc2nc3cc4ccccc4cc3n21` (centres undefined): the TGI in the assay on TK-10 renal, in the assay on K-562 leukemia and in the assay on SNB-19 CNS was over 100 µM throughout.
With `Cc1ccc(S(=O)(=O)Oc2coc(CO)cc2=O)cc1`, the TGI in the assay on TK-10 renal was 44.2 µM; in the assay on K-562 leukemia, over 100 µM; with SNB-19 CNS it was 27.8 µM.
The like results for `Cc1nn(-c2ccccc2)c2nc3c(c(C)nn3-c3ccccc3)c(-c3ccccc3Br)c12` were, in that order, over 100 µM, over 100 µM and over 100 µM.
Consider `COC(=O)C1=C(C(=O)OC)C(C(=O)c2ccccc2)N2N=C(c3ccc(Cl)cc3)C=CC12` (centres undefined), for which the TGI in the assay with TK-10 renal, in the assay on K-562 leukemia and in the assay with SNB-19 CNS was over 100 µM each time.
As to `CCn1cc(C(=O)O)c(=O)c2cc(F)c(N3CCN(Cn4c(O)c(N=NC(=O)c5ccncc5)c5cc(Cl)ccc54)CC3)cc21`, the TGI in the assay on TK-10 renal was 71.3 µM; in the assay with K-562 leukemia, over 100 µM; in the assay with SNB-19 CNS, over 100 µM.
As to `CCC/C(Cl)=N\OC(=O)Nc1ccc(Br)cc1`, the TGI with TK-10 renal is 27.2 µM; in the assay with K-562 leukemia, 4.15 µM; in the assay on SNB-19 CNS, over 59.7 µM.
Turning to `Cc1ccc(-c2cnc(NC3OC(COC(=O)c4ccccc4)C(OC(=O)c4ccccc4)C(OC(=O)c4ccccc4)C3OC(=O)c3ccccc3)s2)cc1` (centres undefined), the TGI in the assay with TK-10 renal and in the assay with SNB-19 CNS was over 100 µM in each case.
In the case of `COCC1OCCN1C` (centres undefined), the TGI in the assay on TK-10 renal, with K-562 leukemia and in the assay with SNB-19 CNS was over 100 µM in each case.
As for `C=C(CO)[C@H]1CC/C(C)=C/CC/C(C)=C/C/C=C(\C)[C@H](O)C1`, the values for the TGI in the assay with TK-10 renal, with K-562 leukemia and with SNB-19 CNS were 47.7 µM, over 100 µM and over 100 µM, respectively.
For `COc1ccc2c(c1)-c1c(c3ccccc3n1CCN1CCCCC1)CC2`, the figures for the TGI in the assay on TK-10 renal, in the assay on K-562 leukemia and in the assay with SNB-19 CNS were 54.6 µM, 18 µM and 66.4 µM, respectively.
Regarding `COc1ccc(-c2cc(=O)c3c(O)c(OC)c(O)cc3o2)cc1O`, the TGI was over 100 µM with TK-10 renal, over 52.7 µM in the assay on K-562 leukemia and over 100 µM in the assay with SNB-19 CNS.
Turning to `CCCN(CCC)C(=S)N/N=C/c1cccc(C)n1`, the results for the TGI in the assay on TK-10 renal, with K-562 leukemia and with SNB-19 CNS were 0.832 µM, 15 µM and over 100 µM, respectively.
Consider `CSC1=N/C(=C\c2ccc(Cl)cc2)C(=O)N1CN1CCOCC1`, for which the TGI in the assay on TK-10 renal, with K-562 leukemia and with SNB-19 CNS was over 100 µM throughout.
Consider `CC(=O)/C(=C/N1C(=O)CC(=O)NC1=S)C(=O)Nc1ccccc1C`, for which the TGI with TK-10 renal and in the assay on SNB-19 CNS was over 100 µM throughout.
On to `Cc1cc(Cl)ccc1NC(=O)/C(CC(=O)CC(c1ccccc1)c1c(O)c2ccccc2oc1=O)=N\O` (centres undefined), for which the TGI in the assay on TK-10 renal and with SNB-19 CNS was over 100 µM in each case.
Regarding `CC1=C/C(=N\N(C)C)C(C(O)(C(F)(F)F)C(F)(F)F)C(C)(C)C1` (centres undefined), the TGI with TK-10 renal, with K-562 leukemia and with SNB-19 CNS was over 100 µM in each case.
Consider `O=C(O)c1ccccc1C(=O)OCC1CCCN2CCCCC12` (centres undefined), for which the TGI with TK-10 renal, with K-562 leukemia and with SNB-19 CNS was over 100 µM each time.
As to `CC1=CC[C@@]2(C)[C@@H]([C@@H]1C)[C@H]1CC[C@@H]3[C@@]4(C)CC[C@H](O)C(C)(C)[C@@H]4CC[C@@]3(C)[C@]1(C)C[C@@H]2O`, the TGI in the assay on TK-10 renal is over 70.7 µM; in the assay on K-562 leukemia, over 100 µM; in the assay on SNB-19 CNS, over 66.4 µM.
Regarding `O=c1c2cc([N+](=O)[O-])cnc2sn1-c1ccc(Oc2ccccc2)cc1`, the TGI in the assay on TK-10 renal and in the assay with SNB-19 CNS was over 100 µM in each case.
